Reference: paper PMC7464159, “Triple Negative Breast Cancer and Breast Epithelial Cells Differentially Reprogram Glucose and Lipid Metabolism upon Treatment with Triterpenic Acids” (Biomolecules, 2020)

Tested on: MDA-MB-231 cells
Test: 1H NMR metabolomics of polar (aqueous) cell extracts
Assay type: cell-based, human
Method: MDA-MB-231 and MCF-10A cells were seeded in 10-cm-diameter Petri dishes at a density of 6 × 10^5 cells/mL (10 mL per dish) and cultured for 24 h at 37 °C. […] Vehicle solvent control cells received DMSO (0.10% v/v). Samples were collected immediately after 48 h incubation or, to assess cellular recovery, medium was replaced with fresh growth medium (without TAs), and cells were incubated for additional 24 h before collection (48 + 24 h samples). Four independent assays were performed.
After incubation, culture medium was collected and centrifuged (1000× g, 5 min) and the supernatant stored at −80 °C until analysis. Culture medium without cells was placed under the same conditions and collected. Cell extraction was performed as described by Carrola et al.. Briefly, cells were washed four times with PBS and extracted with a mixture of methanol:chloroform:water (1:1:0.7). The resulting polar and organic phases were collected and then dried under vacuum or under a stream of nitrogen gas, respectively. All samples were stored at −80 °C and, at the time of analysis, dried polar extracts were reconstituted in 600 µL of deuterated phosphate buffer (100 mM, pH 7.4) containing 0.1 mM TSP-d4, while organic extracts were reconstituted in deuterated chloroform containing 0.03% TMS. Regarding medium samples, 540 μL were mixed with 60 μL of D2O containing 0.25% TSP-d4. Prior to analysis, 550 μL of each sample were transferred to 5 mm NMR tubes.
^1H NMR spectra of all samples were acquired on a Bruker Avance III HD 500 NMR spectrometer (University of Aveiro, Portuguese NMR Network) operating at 500.13 MHz for ^1H observation equipped with a 5 mm TXI probe. Standard 1D spectra (Bruker pulse programs ‘noesypr1d’, with water suppression, for medium samples and aqueous extracts, and ‘zg’ for organic extracts) were recorded with a 7002.8 Hz spectral width, 32 k data points, a 2 s relaxation delay and 512 scans. Spectral processing comprised exponential multiplication with 0.3 Hz line broadening, zero filling to 64 k data points, manual phasing, baseline correction, and chemical shift calibration to the TSP or TMS signal at 0 ppm. 2D ^1H-^1H total correlation (TOCSY) spectra, ^1H-^13C heteronuclear single quantum correlation (HSQC) spectra and J-resolved spectra were also registered for selected samples to assist spectral assignment. Metabolites were identified with the support of 2D spectra and the spectral reference databases BBIOREFCODE-2-0-0 (Bruker Biospin, Rheinstetten, Germany) and HMDB [28]. Selected signals were then integrated using the AmixViewer software […] (version 3.9.14, Bruker BioSpin, Rheinstetten, Germany) and normalized by the total spectral area. The magnitude of each metabolite change was assessed through the percentage of variation (and its respective error) in exposed samples relatively to controls, and through the effect size (ES) adjusted for small sample numbers (and respective standard error). Metabolite variations with absolute ES greater than 0.8 were expressed in a heatmap, colored as a function of the percentage of variation, employing the R statistical software.

Molecule `C[C@H]1[C@H](C)CC[C@]2(C(=O)O)CC[C@]3(C)C(=CC[C@@H]4[C@@]5(C)CC[C@H](O)C(C)(C)[C@@H]5CC[C@]43C)[C@H]12` [UA, ursolic acid] has an ATP %var (UA 10µM, 48h) of 0%, an Acetate %var (UA 10µM, 48h) of 0% and an Ala %var (UA 10µM, 48h) of 0%. The Asp %var (UA 10µM, 48h) was 0%, the Choline %var (UA 10µM, 48h) was -6.23% and the Citrate %var (UA 10µM, 48h) was -23.26%. It also gave a Cr %var (UA 10µM, 48h) of 0%, a Fumarate %var (UA 10µM, 48h) of 0% and a GPC %var (UA 10µM, 48h) of 9.94%. The GSH %var (UA 10µM, 48h) was -7.40%, the Gln %var (UA 10µM, 48h) was -13.00% and the Glu %var (UA 10µM, 48h) was 0%. For the same molecule, the Gly %var (UA 10µM, 48h) was 0%, the Ile %var (UA 10µM, 48h) was 0% and the Lactate %var (UA 10µM, 48h) was 0%. It also gave a Leu %var (UA 10µM, 48h) of 0%, a PC %var (UA 10µM, 48h) of -7.00% and a PCr %var (UA 10µM, 48h) of -13.59%. The Phe %var (UA 10µM, 48h) was 0%, the Pro %var (UA 10µM, 48h) was 0% and the Tau %var (UA 10µM, 48h) was 0%. It also gave a Tyr %var (UA 10µM, 48h) of 0%, a Val %var (UA 10µM, 48h) of 0% and a myo-Ino %var (UA 10µM, 48h) of 0%. For the same molecule, the ATP %var (UA 10µM, 48h+24h) was 0%, the Acetate %var (UA 10µM, 48h+24h) was 0% and the Ala %var (UA 10µM, 48h+24h) was 0.00%. The Asp %var (UA 10µM, 48h+24h) was 0.00%, the Choline %var (UA 10µM, 48h+24h) was 0% and the Citrate %var (UA 10µM, 48h+24h) was -10.99%. For the same molecule, the Cr %var (UA 10µM, 48h+24h) was 0%, the Fumarate %var (UA 10µM, 48h+24h) was 0% and the GPC %var (UA 10µM, 48h+24h) was 0%. It also gave a GSH %var (UA 10µM, 48h+24h) of 0%, a Gln %var (UA 10µM, 48h+24h) of 0% and a Glu %var (UA 10µM, 48h+24h) of 0%. It also gave a Gly %var (UA 10µM, 48h+24h) of -7.50%, an Ile %var (UA 10µM, 48h+24h) of 0% and a Lactate %var (UA 10µM, 48h+24h) of 0%. The Leu %var (UA 10µM, 48h+24h) was 0%, the PC %var (UA 10µM, 48h+24h) was 0% and the PCr %var (UA 10µM, 48h+24h) was 0%. The Phe %var (UA 10µM, 48h+24h) was 0%, the Pro %var (UA 10µM, 48h+24h) was 0% and the Tau %var (UA 10µM, 48h+24h) was 0%. It also gave a Tyr %var (UA 10µM, 48h+24h) of 0%, a Val %var (UA 10µM, 48h+24h) of 0% and a myo-Ino %var (UA 10µM, 48h+24h) of 0%. For the same molecule, the ATP %var (UA 20µM, 48h) was 0%, the Acetate %var (UA 20µM, 48h) was 10.69% and the Ala %var (UA 20µM, 48h) was 0%. It also gave a Choline %var (UA 20µM, 48h) of 0%, a Citrate %var (UA 20µM, 48h) of -19.44% and a Cr %var (UA 20µM, 48h) of 0%. The GPC %var (UA 20µM, 48h) was 10.72%, the GSH %var (UA 20µM, 48h) was -7.50% and the Gln %var (UA 20µM, 48h) was 0%. The Glu %var (UA 20µM, 48h) was 0%, the Gly %var (UA 20µM, 48h) was -15.08% and the Ile %var (UA 20µM, 48h) was 0%. The Lactate %var (UA 20µM, 48h) was 0%, the Leu %var (UA 20µM, 48h) was 0% and the PC %var (UA 20µM, 48h) was -6.17%. The PCr %var (UA 20µM, 48h) was -10.77%, the Phe %var (UA 20µM, 48h) was 0% and the Pro %var (UA 20µM, 48h) was 0%. For the same molecule, the Tau %var (UA 20µM, 48h) was 11.82%, the Tyr %var (UA 20µM, 48h) was 0% and the Val %var (UA 20µM, 48h) was 0%. For the same molecule, the myo-Ino %var (UA 20µM, 48h) was 0%, the “number of intracellular polar metabolites consistently altered” value (UA 20µM, 48h) was 10 and the ATP %var (UA 20µM, 48h+24h) was -9.33%. It also gave an Acetate %var (UA 20µM, 48h+24h) of 11.02%, an Ala %var (UA 20µM, 48h+24h) of -12.11% and an Asp %var (UA 20µM, 48h+24h) of 32.91%. For the same molecule, the Choline %var (UA 20µM, 48h+24h) was 0%, the Citrate %var (UA 20µM, 48h+24h) was -15.02% and the Cr %var (UA 20µM, 48h+24h) was 0%. The Fumarate %var (UA 20µM, 48h+24h) was -10.34%, the GPC %var (UA 20µM, 48h+24h) was -6.52% and the GSH %var (UA 20µM, 48h+24h) was -8.79%. For the same molecule, the Gln %var (UA 20µM, 48h+24h) was 0%, the Glu %var (UA 20µM, 48h+24h) was 0% and the Gly %var (UA 20µM, 48h+24h) was -25.85%. For the same molecule, the Ile %var (UA 20µM, 48h+24h) was 0%, the Lactate %var (UA 20µM, 48h+24h) was 0% and the Leu %var (UA 20µM, 48h+24h) was 0%. The PC %var (UA 20µM, 48h+24h) was 21.66%, the PCr %var (UA 20µM, 48h+24h) was 0% and the Phe %var (UA 20µM, 48h+24h) was 0%. It also gave a Pro %var (UA 20µM, 48h+24h) of 0%, a Tau %var (UA 20µM, 48h+24h) of 0% and a Tyr %var (UA 20µM, 48h+24h) of 0%. It also gave a Val %var (UA 20µM, 48h+24h) of 0% and a myo-Ino %var (UA 20µM, 48h+24h) of -9.02%.
